For orientation: EC50 means the concentration needed to bring the measured effect to its halfway point. Usually melting point stands for the temperature of the solid-liquid transition.

Structures are written as SMILES.

One series addresses T1, GST-hLGK1 (human liver GK) (Homo sapiens, UniProt P35557).
T1 construct: made in house; host or cells: Escherichia coli BL21 (Stratagene), plasmid pGEX6P-2/hLGK1
T1 sequence (P35557 1-464 isoform P35557-3): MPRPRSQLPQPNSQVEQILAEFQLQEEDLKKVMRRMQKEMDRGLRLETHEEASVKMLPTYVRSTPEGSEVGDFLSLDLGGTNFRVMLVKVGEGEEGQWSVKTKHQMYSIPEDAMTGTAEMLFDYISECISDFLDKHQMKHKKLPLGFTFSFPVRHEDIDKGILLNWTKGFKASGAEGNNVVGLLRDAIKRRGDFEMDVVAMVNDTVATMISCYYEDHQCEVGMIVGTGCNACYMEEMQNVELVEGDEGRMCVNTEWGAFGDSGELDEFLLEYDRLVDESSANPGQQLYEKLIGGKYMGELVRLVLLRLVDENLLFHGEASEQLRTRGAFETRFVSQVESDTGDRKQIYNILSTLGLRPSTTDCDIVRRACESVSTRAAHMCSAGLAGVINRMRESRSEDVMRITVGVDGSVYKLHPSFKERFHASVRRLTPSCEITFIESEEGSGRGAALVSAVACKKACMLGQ
In words: Determination of GK activity value (GST-hLGK1, Mant-ATP, capillary electrophoresis). The format is biochemical. To be noted: glucokinase activation; GST-hLGK1, D-glucose, 37° C. for 60 min; concentration at midpoint between maximum activity value and control group activity value. Here is the method: Plasmid DNA to be used for the expression of a protein (GST-hLGK1) containing GST (Glutathione S-transferase) added to the amino terminal of human liver GK in Escherichia coli was prepared as follows.
BL21 strain (Stratagene) transformed with pGEX6P-2/hLGK1 obtained in Reference Example 1A was cultured with shaking at 37° C. for 14 hr in a 200 ml Erlenmeyer flask containing 50 ml of 100 μg/ml ampicillin-containing LB medium. The culture medium (25 ml) was diluted with 225 ml of 100 μg/ml ampicillin-containing LB medium, and further cultured with shaking at 37° C. for 1 hr in a 1 L Erlenmeyer flask. After culture, the Erlenmeyer flask was cooled on ice, 125 μL of 100 mM isopropyl-thio-β-D-galactopyranoside (IPTG) was added (final concentration 50 μM), and cultured at 17° C. for 20 hr. The culture medium was centrifuged, and the obtained fungus was disrupted by ultrasonication. The object protein (GST-hLGK1) was purified from the supernatant using Glutathione Sepharose 4B (Amersham Biosciences K.K.).
A solution (5 μL) of test compound in 50% dimethyl sulfoxide was added to each well of 384 well black plate (Nalge Nunc International K.K.). Then, a solution ([…]) obtained by diluting GST-hLGK1 obtained in Reference Example 2A with measurement buffer (containing 50 mM HEPES (pH 7.4), 200 mM KCl, 5 mM MgCl2, 2.5 mM DTT and 50 μM 2′-(or-3′)-O—(N-methylanthraniloyl)adenosine 5′-triphosphate (Mant-ATP) (Jena Bioscience GmbH)) to 6 μg/mL was added to each well.
Each well was stood at 37° C. for 10 min, and 25 mM D-glucose solution (10 μL) was added to start the reaction.
Each well after the reaction was stood at 37° C. for 60 min, and the reaction was quenched by adding 25 μL of a quenching solution (containing 200 mM HEPES (pH 7.4), 20 mM MgCl2, 200 mM EDTA, 0.03% Triton-X 100, 0.3% Coating 3 reagent (Caliper Life Sciences, Inc.)).
2′-(or-3′)-O—(N-methylanthraniloyl)adenosine 5′-triphosphate (Mant-ATP, substrate) and Mant-ADP (reaction resultant product) were separated from each well after the reaction by a microchip type capillary electrophoresis apparatus 250 HTS (Caliper Life Sciences, Inc.). The reaction rate [(reaction resultant product peak height)/(reaction resultant product peak height+substrate peak height)×100(%)] was calculated from the ratio of the substrate peak height and reaction resultant product peak height obtained by fluorescence detection (excitation wavelength 355 nm, measurement wavelength 460 nm) and used as the index of GK activity.
As a control group, the reaction rate was calculated in the same manner as above except that “solution in 50% dimethyl sulfoxide (without test compound)” was used instead of “solution of test compound in 50% dimethyl sulfoxide”.
A concentration dependency curve of the test compound was drawn with the percentage obtained by dividing the reaction rate of the well added with the test compound (test compound addition group) by the reaction rate of the control group was taken as the GK activity value of the test compound, and the concentration of the test compound at the midpoint between the maximum activity value of the test compound addition group and the control group activity value is shown as EC50 value.
As for `CN(c1cccc2cc(C3=NCC(CN4CCOCC4)S3)[nH]c12)S(=O)(=O)c1cccs1` (single isomer, unassigned) [Example 274, N-methyl-N-{2-[5-(morpholinomethyl)-4,5-dihydro-1,3-thiazol-2-yl]-1H-indol-7-yl}thiophene-2-sulfonamide], the EC50 amounted to 81 nM.

Consider `O=S(=O)(c1cccs1)N(c1cccc2cc(C3=NCC(CN4CCOCC4)S3)[nH]c12)C(F)F` (single isomer, unassigned) [Example 348, N-(difluoromethyl)-N-{2-[5-(morpholinomethyl)-4,5-dihydro-1,3-thiazol-2-yl]-1H-indol-7-yl}thiophene-2-sulfonamide], for which the EC50 worked out at 44 nM.

Consider `COCCOc1cc(N(C)S(=O)(=O)c2ccccn2)c2[nH]c(C3=NCC(CN4CC[S+]([O-])CC4)S3)cc2c1` (single isomer, unassigned) [Example 398, N-(5-(2-methoxyethoxy)-2-{5-[(1-oxidothiomorpholino)methyl]-4,5-dihydro-1,3-thiazol-2-yl}-1H-indol-7-yl)-N-methylpyridine-2-sulfonamide], for which the EC50 was 210 nM.

As to `CN(c1cc(OC(F)(F)F)cc2cc(C3=NCC(CC(N)=O)S3)[nH]c12)S(=O)(=O)c1cccs1` (single isomer, unassigned) [Example 520, 2-{2-[7-[methyl(2-thienylsulfonyl)amino]-5-(trifluoromethoxy)-1H-indol-2-yl]-4,5-dihydro-1,3-thiazol-5-yl}acetamide], the midpoint of the response, the EC50, lay at 190 nM.

Molecule `COCCOc1cc(N(C)S(=O)(=O)c2ccccn2)c2[nH]c(C3=NCC(CN4CCS(=O)(=O)CC4)S3)cc2c1` (single isomer, unassigned) [Example 528, N-[2-{5-[(1,1-dioxidothiomorpholino)methyl]-4,5-dihydro-1,3-thiazol-2-yl}-5-(2-methoxyethoxy)-1H-indol-7-yl]-N-methylpyridine-2-sulfonamide] had an EC50 of 260 nM.

Molecule `CN(C)C(=O)CN1CCN(Cc2cnc(-c3cc4cccc(N(C)S(=O)(=O)c5cccs5)c4[nH]3)s2)CC1` [Example 10, N,N-dimethyl-2-{4-[(2-{7-[methyl(2-thienylsulfonyl)amino]-1H-indol-2-yl}-1,3-thiazol-5-yl)methyl]piperazin-1-yl}acetamide ditrifluoroacetate] had an EC50 of 210 nM.

The molecule `CC(=O)N1CCN(Cc2cnc(-c3cc4c(Cl)ccc(N(C)S(=O)(=O)c5cccs5)c4[nH]3)s2)CC1` [Example 191, N-(2-{5-[(4-acetylpiperazin-1-yl)methyl]-1,3-thiazol-2-yl}-4-chloro-1H-indol-7-yl)-N-methylthiophene-2-sulfonamide] came in with an EC50 of 31 nM.

The molecule `CC(=O)N1CCN(Cc2nnc(-c3cc4cccc(N(C)S(=O)(=O)c5cccs5)c4[nH]3)s2)CC1` [Example 198, N-(2-{5-[(4-acetylpiperazin-1-yl)methyl]-1,3,4-thiadiazol-2-yl}-1H-indol-7-yl)-N-methylthiophene-2-sulfonamide] returned an EC50 of 530 nM.

`CN(c1cccc2cc(C3=NCC(C)(CCN4CCOCC4)S3)[nH]c12)S(=O)(=O)c1cccs1` (centres unmarked) [Example 200, N-methyl-N-{2-[5-methyl-5-(2-(morpholino)ethyl)-4,5-dihydro-1,3-thiazol-2-yl]-1H-indol-7-yl}thiophene-2-sulfonamide] registered an EC50 of 61 nM.

Take `CC(=O)N1CCN(CC2CN=C(c3cc4cccc(N(C)S(=O)(=O)c5cccs5)c4[nH]3)S2)CC1` (centres unmarked) [Example 218, N-(2-{5-[(4-acetylpiperazin-1-yl)methyl]-4,5-dihydro-1,3-thiazol-2-yl}-1H-indol-7-yl)-N-methylthiophene-2-sulfonamide]: the EC50 is 180 nM.

Molecule `CN(c1cccc2cc(C3=NCC(C(C)(C)O)S3)[nH]c12)S(=O)(=O)c1cccs1` (centres unmarked) [Example 226, N-{2-[5-(1-hydroxy-1-methylethyl)-4,5-dihydro-1,3-thiazol-2-yl]-1H-indol-7-yl}-N-methylthiophene-2-sulfonamide] registered an EC50 of 53 nM.

Tested on in the next series: not given
Experiment: not given
Details: not given
`CN(c1cc(OCCCS(C)(=O)=O)cc2cc(C3=NCC(CN4CCOCC4)S3)[nH]c12)S(=O)(=O)c1ccccn1` (centres unmarked) [Example 321, N-methyl-N-{5-[3-(methylsulfonyl)propoxy]-2-[5-(morpholinomethyl)-4,5-dihydro-1,3-thiazol-2-yl]-1H-indol-7-yl}pyridine-2-sulfonamide]: the melting point lay in the range of 168 to 169 °C.

For the molecule `CN(c1cc(OCCCS(C)(=O)=O)cc2cc(C3=NCC(CN4CC[S+]([O-])CC4)S3)[nH]c12)S(=O)(=O)c1ccccn1` (centres unmarked) [Example 323, N-methyl-N-(5-[3-(methylsulfonyl)propoxy]-2-{5-[(1-oxidothiomorpholino)methyl]-4,5-dihydro-1,3-thiazol-2-yl}-1H-indol-7-yl)pyridine-2-sulfonamide], the melting point is 107 to 110 °C.

`CC(=O)N1CCN(CC2CN=C(c3cc4cc(OCCCS(C)(=O)=O)cc(N(C)S(=O)(=O)c5ccccn5)c4[nH]3)S2)CC1` (centres unmarked) [Example 324, N-{2-{5-[(4-acetylpiperazin-1-yl)methyl]-4,5-dihydro-1,3-thiazol-2-yl}-5-[3-(methylsulfonyl)propoxy]-1H-indol-7-yl}-N-methylpyridine-2-sulfonamide] returned a melting point of 165 to 167 °C.

`CN(c1cc(OCCCS(C)(=O)=O)cc2cc(C3=NCC(CN4CCN(S(C)(=O)=O)CC4)S3)[nH]c12)S(=O)(=O)c1ccccn1` (centres unmarked) [Example 325, N-methyl-N-{2-(5-{[4-(methylsulfonyl)piperazin-1-yl]methyl}-4,5-dihydro-1,3-thiazol-2-yl)-5-[3-(methylsulfonyl)propoxy]-1H-indol-7-yl}pyridine-2-sulfonamide] showed a melting point of 151 to 153 °C.

In the case of `CN(c1cccc2cc(C3=NCC(CC(=O)O)S3)[nH]c12)S(=O)(=O)c1ccccn1` (centres unmarked) [Example 333, (2-{7-[methyl(pyridin-2-ylsulfonyl)amino]-1H-indol-2-yl}-4,5-dihydro-1,3-thiazol-5-yl)acetic acid], the melting point lay in the range of 231 to 233 °C.

In turn, `CN(c1cccc2cc(C3=NCC(CC(N)=O)S3)[nH]c12)S(=O)(=O)c1ccccn1` (centres unmarked) [Example 334, 2-(2-{7-[methyl(pyridin-2-ylsulfonyl)amino]-1H-indol-2-yl}-4,5-dihydro-1,3-thiazol-5-yl)acetamide] showed a melting point of 206 to 207 °C.

Molecule `CN(c1cccc2cc(C3=NCC(CC(N)=O)S3)[nH]c12)S(=O)(=O)c1ccccn1` (centres unmarked) [Example 338, 2-(2-{7-[methyl(pyridin-2-ylsulfonyl)amino]-1H-indol-2-yl}-4,5-dihydro-1,3-thiazol-5-yl)acetamide] showed a melting point of 148 to 149 °C.

In turn, `O=S(=O)(c1cccs1)N(c1cccc2cc(C3=NCC(CN4CCOCC4)S3)[nH]c12)C(F)F` (centres unmarked) [Example 346, N-(difluoromethyl)-N-{2-[5-(morpholinomethyl)-4,5-dihydro-1,3-thiazol-2-yl]-1H-indol-7-yl}thiophene-2-sulfonamide] showed a melting point of 185 to 186 °C.

In turn, `CN(c1cc(OC(F)(F)F)cc2cc(C3=NCC(CC(N)=O)S3)[nH]c12)S(=O)(=O)c1cccs1` (centres unmarked) [Example 384, 2-{2-[7-[methyl(2-thienylsulfonyl)amino]-5-(trifluoromethoxy)-1H-indol-2-yl]-4,5-dihydro-1,3-thiazol-5-yl}acetamide] showed a melting point of 186 to 187 °C.
